“And” between values parts separate entries of the source, which are not always exact repeats. Equal values may be shown once. Read-outs that look alike come from different tables or passages of the source.
System: mtrC-lacZ expression
Assay type: cell-based, Neisseria gonorrhoeae
Conditions: for Plate-6 (Testosterone) Miller units, Mean / Plate-6 (Testosterone) Miller units: left (mtrC) half of sheet; for β-galactosidase activity, Mean / β-galactosidase activity, single replicate: mtrCDE block (c1-c37), ΔmtrR + mtrR R176E in trans
[1] = WT, testosterone 6.25 µM, right block Plate-4
[2] = WT, testosterone 25 µM, right block Plate-4
[3] = WT, testosterone 50 µM, right block Plate-4
[4] = fourth strain (lower plate half, wells 7-12; not named), testosterone 6.25 µM, right block Plate-4
[5] = fourth strain (lower plate half, wells 7-12; not named), testosterone 12.5 µM, right block Plate-4
[6] = mtrC-lacZ, ΔmtrR + mtrR D171A in trans, 6.25 µM hormone, single replicate
[7] = mtrC-lacZ, ΔmtrR + mtrR D171A in trans, 12.5 µM hormone, single replicate
[8] = mtrC-lacZ, ΔmtrR + mtrR D171A in trans, 25 µM hormone, single replicate
[9] = mtrC-lacZ, ΔmtrR + mtrR D171A in trans, 50 µM hormone, single replicate
[10] = mtrC-lacZ, ΔmtrR + mtrR WT in trans, 6.25 µM hormone, single replicate
[11] = mtrC-lacZ, ΔmtrR + mtrR WT in trans, 12.5 µM hormone, single replicate
[12] = mtrC-lacZ, ΔmtrR + mtrR WT in trans, 25 µM hormone, single replicate
[13] = mtrC-lacZ, ΔmtrR + mtrR WT in trans, 50 µM hormone, single replicate
[14] = mtrCDE, fourth strain (lower plate half, wells 7-12; not named), testosterone 1 µM, left block Plate-4
[15] = mtrCDE, fourth strain (lower plate half, wells 7-12; not named), testosterone 10 µM, left block Plate-4
[16] = mtrCDE, fourth strain (lower plate half, wells 7-12; not named), testosterone 25 µM, left block Plate-4
[17] = mtrCDE, fourth strain (lower plate half, wells 7-12; not named), testosterone 50 µM, left block Plate-4
[18] = mtrCDE, fourth strain (lower plate half, wells 7-12; not named), testosterone 100 µM, left block Plate-4

## C[C@]12CC[C@H]3[C@@H](CCC4=CC(=O)CC[C@@]43C)[C@@H]1CC[C@@H]2O [Testosterone, testosterone]
6.25 µM hormone, plate columns 1-6 (WT), mean of plate rows 1-4 (mtrC)
  Miller units, Mean: 141 Miller units
6.25 µM hormone, plate columns 1-6 (WT), plate rows 1-4 (mtrC), single well
  Miller units: 164 Miller units and 134 Miller units and 127 Miller units and 139 Miller units
6.25 µM hormone, plate columns 7-12 (second strain not given), plate rows 1-4 (mtrC), single well
  Miller units: 276 Miller units and 252 Miller units and 246 Miller units and 285 Miller units
6.25 µM hormone, plate columns 7-12 (second strain), mean of plate rows 1-4 (mtrC)
  Miller units, Mean: 265 Miller units
6.25 µM, plate column 3, mean of plate rows 5-8
  Plate-6 (Testosterone) Miller units, Mean: 43 Miller units
6.25 µM, plate column 3, plate rows 5-8, single wells
  Plate-6 (Testosterone) Miller units: 39 Miller units and 46 Miller units and 47 Miller units
6.25 µM, plate column 9, mean of plate rows 5-8
  Plate-6 (Testosterone) Miller units, Mean: 64 Miller units
6.25 µM, single wells
  Plate-6 (Testosterone) Miller units: 55 Miller units and 57 Miller units and 65 Miller units and 80 Miller units
12.5 µM hormone, plate columns 1-6 (WT), mean of plate rows 1-4 (mtrC)
  Miller units, Mean: 166 Miller units
12.5 µM hormone, plate columns 1-6 (WT), plate rows 1-4 (mtrC), single well
  Miller units: 186 Miller units and 164 Miller units and 155 Miller units and 161 Miller units
12.5 µM hormone, plate columns 7-12 (second strain not given), plate rows 1-4 (mtrC), single well
  Miller units: 296 Miller units and 248 Miller units and 237 Miller units and 196 Miller units
12.5 µM hormone, plate columns 7-12 (second strain), mean of plate rows 1-4 (mtrC)
  Miller units, Mean: 244 Miller units
12.5 µM, plate column 4, mean of plate rows 5-8
  Plate-6 (Testosterone) Miller units, Mean: 52 Miller units
12.5 µM, plate column 4, plate rows 5-8, single wells
  Plate-6 (Testosterone) Miller units: 51 Miller units and 50 Miller units and 56 Miller units and 52 Miller units
12.5 µM, plate column 10, mean of plate rows 5-8
  Plate-6 (Testosterone) Miller units, Mean: 62 Miller units
12.5 µM, plate column 10, plate rows 5-8, single wells
  Plate-6 (Testosterone) Miller units: 58 Miller units and 54 Miller units and 63 Miller units and 74 Miller units
25 µM hormone, plate columns 1-6 (WT), mean of plate rows 1-4 (mtrC)
  Miller units, Mean: 178 Miller units
25 µM hormone, plate columns 1-6 (WT), plate rows 1-4 (mtrC), single well
  Miller units: 189 Miller units and 186 Miller units and 165 Miller units and 170 Miller units
25 µM hormone, plate columns 7-12 (second strain not given), plate rows 1-4 (mtrC), single well
  Miller units: 284 Miller units and 276 Miller units and 289 Miller units and 254 Miller units
25 µM hormone, plate columns 7-12 (second strain), mean of plate rows 1-4 (mtrC)
  Miller units, Mean: 276 Miller units
25 µM, plate column 5, mean of plate rows 5-8
  Plate-6 (Testosterone) Miller units, Mean: 63 Miller units
25 µM, plate column 5, plate rows 5-8, single wells
  Plate-6 (Testosterone) Miller units: 68 Miller units and 55 Miller units and 57 Miller units and 70 Miller units
25 µM, plate column 11, mean of plate rows 5-8
  Plate-6 (Testosterone) Miller units, Mean: 65 Miller units
25 µM, plate column 11, plate rows 5-8, single wells
  Plate-6 (Testosterone) Miller units: 64 Miller units and 60 Miller units and 68 Miller units and 67 Miller units
50 µM hormone, plate columns 1-6 (WT), mean of plate rows 1-4 (mtrC)
  Miller units, Mean: 195 Miller units
50 µM hormone, plate columns 1-6 (WT), plate rows 1-4 (mtrC), single well
  Miller units: 222 Miller units and 215 Miller units and 166 Miller units and 177 Miller units
50 µM hormone, plate columns 7-12 (second strain not given), plate rows 1-4 (mtrC), single well
  Miller units: 310 Miller units and 287 Miller units and 255 Miller units and 237 Miller units
50 µM hormone, plate columns 7-12 (second strain), mean of plate rows 1-4 (mtrC)
  Miller units, Mean: 272 Miller units
50 µM, plate column 6, mean of plate rows 5-8
  Plate-6 (Testosterone) Miller units, Mean: 68 Miller units
50 µM, plate column 6, plate rows 5-8, single wells
  Plate-6 (Testosterone) Miller units: 76 Miller units and 71 Miller units and 62 Miller units and 63 Miller units
50 µM, plate column 12, mean of plate rows 5-8
  Plate-6 (Testosterone) Miller units, Mean: 57 Miller units
50 µM, single wells
  Plate-6 (Testosterone) Miller units: 65 Miller units and 49 Miller units and 56 Miller units and 58 Miller units
Mean of plate rows 1-4, plate columns 1-6 (first strain), 6.25 µM hormone
  Miller units, Mean: 69 Miller units
Mean of plate rows 1-4, plate columns 1-6 (first strain), 12.5 µM hormone
  Miller units, Mean: 81 Miller units
Mean of plate rows 1-4, plate columns 1-6 (first strain), 25 µM hormone
  Miller units, Mean: 98 Miller units
Mean of plate rows 1-4, plate columns 1-6 (first strain), 50 µM hormone
  Miller units, Mean: 117 Miller units
Mean of plate rows 1-4, plate columns 7-12 (second strain), 6.25 µM hormone
  Miller units, Mean: 96 Miller units
Mean of plate rows 1-4, plate columns 7-12 (second strain), 12.5 µM hormone
  Miller units, Mean: 102 Miller units
Mean of plate rows 1-4, plate columns 7-12 (second strain), 25 µM hormone
  Miller units, Mean: 112 Miller units
Mean of plate rows 1-4, plate columns 7-12 (second strain), 50 µM hormone
  Miller units, Mean: 119 Miller units
[1]
  Miller units, Mean: 81 Miller units
  Miller units, single replicate: 103 Miller units and 88 Miller units
WT, testosterone 12.5 µM, right block Plate-4
  Miller units, single replicate: 126 Miller units
[2]
  Miller units, Mean: 130 Miller units
  Miller units, single replicate: 144 Miller units and 138 Miller units
[3]
  Miller units, Mean: 134 Miller units
  Miller units, single replicate: 161 Miller units and 150 Miller units
Complemented (MtrR+) strains, increasing hormone
  induction of mtrC expression: could be induced
[4]
  Miller units, Mean: 47 Miller units
  Miller units, single replicate: 46 Miller units
[5]
  Miller units, Mean: 55 Miller units
  Miller units, single replicate: 56 Miller units
Fourth strain (lower plate half, wells 7-12; not named), testosterone 25 µM, right block Plate-4
  Miller units, Mean: 85 Miller units
Fourth strain (lower plate half, wells 7-12; not named), testosterone 50 µM, right block Plate-4
  Miller units, Mean: 79 Miller units
Loss of MtrR or MtrR-D171A strain
  induction of mtrC expression: abrogated
mtrC-lacZ, WT, 6.25 µM hormone
  Miller units, Mean: 141 Miller units
mtrC-lacZ, WT, 12.5 µM hormone
  Miller units, Mean: 166 Miller units
mtrC-lacZ, WT, 25 µM hormone
  Miller units, Mean: 178 Miller units
mtrC-lacZ, WT, 50 µM hormone
  Miller units, Mean: 195 Miller units
[6]
  Miller units: 162 Miller units
  β-galactosidase activity (Miller units): 162 Miller units and 167 Miller units and 161 Miller units and 191 Miller units
[7]
  Miller units: 176 Miller units
  β-galactosidase activity (Miller units): 176 Miller units and 177 Miller units and 161 Miller units and 186 Miller units
[8]
  Miller units: 185 Miller units
  β-galactosidase activity (Miller units): 185 Miller units and 179 Miller units and 168 Miller units and 147 Miller units
[9]
  Miller units: 166 Miller units
  β-galactosidase activity (Miller units): 166 Miller units and 158 Miller units and 156 Miller units
[10]
  Miller units: 108 Miller units and 127 Miller units and 114 Miller units and 153 Miller units
  β-galactosidase activity (Miller units): 108 Miller units and 127 Miller units and 114 Miller units and 153 Miller units
[11]
  Miller units: 125 Miller units and 124 Miller units and 120 Miller units and 149 Miller units
  β-galactosidase activity (Miller units): 125 Miller units and 124 Miller units and 120 Miller units and 149 Miller units
[12]
  Miller units: 133 Miller units and 137 Miller units and 127 Miller units
  β-galactosidase activity (Miller units): 133 Miller units and 137 Miller units and 127 Miller units
[13]
  Miller units: 146 Miller units and 140 Miller units and 175 Miller units
  β-galactosidase activity (Miller units): 146 Miller units and 140 Miller units and 175 Miller units
mtrC-lacZ, ΔmtrR strain, 6.25 µM hormone, single replicate
  β-galactosidase activity (Miller units): 246 Miller units
mtrC-lacZ, ΔmtrR strain, 12.5 µM hormone, single replicate
  β-galactosidase activity (Miller units): 237 Miller units
mtrC-lacZ, ΔmtrR strain, 25 µM hormone, single replicate
  β-galactosidase activity (Miller units): 289 Miller units
mtrC-lacZ, ΔmtrR strain, 50 µM hormone, single replicate
  β-galactosidase activity (Miller units): 255 Miller units
mtrC-lacZ, ΔmtrR, 6.25 µM hormone
  Miller units, Mean: 265 Miller units
mtrC-lacZ, ΔmtrR, 12.5 µM hormone
  Miller units, Mean: 244 Miller units
mtrC-lacZ, ΔmtrR, 25 µM hormone
  Miller units, Mean: 276 Miller units
mtrC-lacZ, ΔmtrR, 50 µM hormone
  Miller units, Mean: 272 Miller units
1 µM
  β-galactosidase activity, Mean: 178 Miller units
  β-galactosidase activity, single replicate: 184 Miller units and 192 Miller units and 127 Miller units and 209 Miller units
10 µM
  β-galactosidase activity, Mean: 206 Miller units
  β-galactosidase activity, single replicate: 290 Miller units and 186 Miller units and 155 Miller units and 194 Miller units
25 µM
  β-galactosidase activity, single replicate: 208 Miller units and 213 Miller units and 178 Miller units and 198 Miller units
50 µM
  β-galactosidase activity, Mean: 224 Miller units
  β-galactosidase activity, single replicate: 262 Miller units and 219 Miller units and 198 Miller units and 217 Miller units
100 µM
  β-galactosidase activity, Mean: 238 Miller units
  β-galactosidase activity, single replicate: 255 Miller units and 223 Miller units and 213 Miller units and 260 Miller units
mtrCDE, WT, testosterone 1 µM, left block Plate-4
  Miller units, Mean: 138 Miller units
mtrCDE, WT, testosterone 10 µM, left block Plate-4
  Miller units, Mean: 235 Miller units
mtrCDE, WT, testosterone 25 µM, left block Plate-4
  Miller units, Mean: 264 Miller units
mtrCDE, WT, testosterone 50 µM, left block Plate-4
  Miller units, Mean: 229 Miller units
mtrCDE, WT, testosterone 100 µM, left block Plate-4
  Miller units, Mean: 248 Miller units
[14]
  Miller units, Mean: 157 Miller units
  Miller units, single replicate: 182 Miller units
[15]
  Miller units, Mean: 190 Miller units
  Miller units, single replicate: 196 Miller units
[16]
  Miller units, Mean: 192 Miller units
  Miller units, single replicate: 225 Miller units and 177 Miller units
[17]
  Miller units, Mean: 201 Miller units
  Miller units, single replicate: 192 Miller units and 186 Miller units
[18]
  Miller units, Mean: 240 Miller units
  Miller units, single replicate: 256 Miller units and 229 Miller units
mtrCDE, third strain (lower plate half, wells 1-6; not named), testosterone 1 µM, left block Plate-4
  Miller units, Mean: 107 Miller units
mtrCDE, third strain (lower plate half, wells 1-6; not named), testosterone 10 µM, left block Plate-4
  Miller units, Mean: 177 Miller units
mtrCDE, third strain (lower plate half, wells 1-6; not named), testosterone 25 µM, left block Plate-4
  Miller units, Mean: 181 Miller units
mtrCDE, third strain (lower plate half, wells 1-6; not named), testosterone 50 µM, left block Plate-4
  Miller units, Mean: 213 Miller units
mtrCDE, third strain (lower plate half, wells 1-6; not named), testosterone 100 µM, left block Plate-4
  Miller units, Mean: 227 Miller units
mtrCDE, ΔmtrR, testosterone 1 µM, left block Plate-4
  Miller units, Mean: 334 Miller units
mtrCDE, ΔmtrR, testosterone 10 µM, left block Plate-4
  Miller units, Mean: 358 Miller units
